# Experimental data published in the Kinase Knowledgebase extract (Sharma et al. 2016).
# pIC50: −log10 of the molar value.
# Target: MAPK14 (human) (UniProt Q16539)
# Assay: Inhibition of MAPK14 Kinase Activity
# MAPK14 (human), sequence (Q16539 whole entry, looked up): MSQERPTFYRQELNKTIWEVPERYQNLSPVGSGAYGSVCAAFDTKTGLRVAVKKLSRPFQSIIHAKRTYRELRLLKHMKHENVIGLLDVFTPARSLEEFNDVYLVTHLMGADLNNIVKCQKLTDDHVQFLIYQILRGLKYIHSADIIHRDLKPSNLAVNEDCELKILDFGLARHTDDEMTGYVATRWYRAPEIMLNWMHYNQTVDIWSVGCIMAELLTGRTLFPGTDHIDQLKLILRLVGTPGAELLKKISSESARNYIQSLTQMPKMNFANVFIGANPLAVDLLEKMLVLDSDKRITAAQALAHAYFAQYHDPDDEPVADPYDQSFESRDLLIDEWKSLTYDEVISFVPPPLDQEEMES
row,pIC50,SMILES
1,7.00 to 9.00,C[C@@H](O)Cn1c(=O)c(Oc2ccc(F)cc2F)cc2cnc(NCC3CC3)nc21
2,7.00 to 9.00,COCCC(CCOC)Nc1ncc2cc(Oc3ccc(F)cc3F)c(=O)n(C[C@H](C)O)c2n1
3,7.00 to 9.00,O=c1c(Oc2ccc(F)cc2F)cc2cnc(NC3CCOCC3)nc2n1CCO
4,7.00 to 9.00,C[C@H](CO)Nc1ncc2cc(Oc3ccc(F)cc3F)c(=O)n(C[C@@H](C)O)c2n1
5,7.00 to 9.00,C[C@H](O)CNc1ncc2cc(Oc3ccc(F)cc3F)c(=O)n(C[C@H](C)O)c2n1
6,7.00 to 9.00,CC(=O)Cn1c(=O)c(Oc2ccc(F)cc2F)cc2cnc(N[C@@H](C)CO)nc21
7,7.00 to 9.00,C[C@@H](O)CNc1ncc2cc(Oc3ccc(F)cc3F)c(=O)n(C[C@@H](C)O)c2n1
8,7.00 to 9.00,CC[C@H](C)Nc1ncc2cc(Oc3ccc(F)cc3F)c(=O)n(C[C@H](C)O)c2n1
9,7.00 to 9.00,C[C@H](O)Cn1c(=O)c(Oc2ccc(F)cc2F)cc2cnc(N[C@@H](C)CO)nc21
10,7.00 to 9.00,C[C@H](O)CNc1ncc2cc(Oc3ccc(F)cc3F)c(=O)n(C[C@@H](C)O)c2n1
11,7.00 to 9.00,C[C@H](O)Cn1c(=O)c(Oc2ccc(F)cc2F)cc2cnc(NC3CC3)nc21
12,7.00 to 9.00,CC(C)CNc1ncc2cc(Oc3ccc(F)cc3F)c(=O)n(C[C@@H](C)O)c2n1
13,7.00 to 9.00,C[C@H](O)Cn1c(=O)c(Oc2ccc(F)cc2F)cc2cnc(NC(CO)CO)nc21
14,7.00 to 9.00,CC[C@H](C)Nc1ncc2cc(Oc3ccc(F)cc3F)c(=O)n(C[C@@H](C)O)c2n1
15,7.00 to 9.00,C[C@H](O)Cn1c(=O)c(Oc2ccc(F)cc2F)cc2cnc(N[C@H](C)CO)nc21
16,7.00 to 9.00,C[C@H](O)Cn1c(=O)c(Oc2ccc(F)cc2F)cc2cnc(NC3CCCC3)nc21
17,7.00 to 9.00,CNc1ncc2cc(Oc3ccc(F)cc3F)c(=O)n(C[C@@H](C)O)c2n1
18,7.00 to 9.00,C[C@H](O)Cn1c(=O)c(Oc2ccc(F)cc2F)cc2cnc(N[C@H](CO)[C@@H](C)O)nc21
19,7.00 to 9.00,C[C@@H](O)Cn1c(=O)c(Oc2ccc(F)cc2F)cc2cnc(NCC(C)(C)C)nc21
20,7.00 to 9.00,C[C@H](O)Cn1c(=O)c(Oc2ccc(F)cc2F)cc2cnc(NC(C)(C)CO)nc21
21,7.00 to 9.00,C[C@H](O)Cn1c(=O)c(Oc2ccc(F)cc2F)cc2cnc(NC3CCOCC3)nc21
22,7.00 to 9.00,C[C@H](O)Cn1c(=O)c(Oc2ccc(F)cc2F)cc2cnc(NC[C@@H](C)O)nc21
23,7.00 to 9.00,CC(C)Nc1ncc2cc(Oc3ccc(F)cc3F)c(=O)n(C[C@H](C)O)c2n1

row,pIC50,SMILES
1,7.00 to 9.00,C[C@H](O)Cn1c(=O)c(Oc2ccc(F)cc2F)cc2cnc(NCC(C)(C)C)nc21
2,7.00 to 9.00,C[C@H](Nc1ncc2cc(Oc3ccc(F)cc3F)c(=O)n(C[C@@H](C)O)c2n1)C(C)(C)O
3,7.00 to 9.00,COC[C@H](C)Nc1ncc2cc(Oc3ccc(F)cc3F)c(=O)n(C(CCO)CCO)c2n1
4,7.00 to 9.00,CC(O)Cn1c(=O)c(Oc2ccc(F)cc2F)cc2cnc(NC3CCOCC3)nc21 (stereo unspecified)
5,7.00 to 9.00,C[C@H](O)Cn1c(=O)c(Oc2ccc(F)cc2F)cc2cnc(N[C@H](CO)CCO)nc21
6,7.00 to 9.00,CCNc1ncc2cc(Oc3ccc(F)cc3F)c(=O)n(C[C@@H](C)O)c2n1
7,7.00 to 9.00,C[C@@H](O)Cn1c(=O)c(Oc2ccc(F)cc2F)cc2cnc(N[C@@H](C)CO)nc21
8,7.00 to 9.00,C[C@@H](O)Cn1c(=O)c(Oc2ccc(F)cc2F)cc2cnc(NC3CC3)nc21
9,7.00 to 9.00,CC(=O)Cn1c(=O)c(Oc2ccc(F)cc2F)cc2cnc(N[C@H](C)CO)nc21
10,7.00 to 9.00,CC[C@@H](C)Nc1ncc2cc(Oc3ccc(F)cc3F)c(=O)n(C[C@H](C)O)c2n1
11,7.00 to 9.00,CC[C@@H](C)Nc1ncc2cc(Oc3ccc(F)cc3F)c(=O)n(C[C@@H](C)O)c2n1
12,7.00 to 9.00,CC[C@H](CO)Nc1ncc2cc(Oc3ccc(F)cc3F)c(=O)n(C[C@@H](C)O)c2n1
13,7.00 to 9.00,C[C@H](O)Cn1c(=O)c(Oc2ccc(F)cc2F)cc2cnc(N[C@@H](CO)CCO)nc21
14,7.00 to 9.00,CC[C@H](CO)Nc1ncc2cc(Oc3ccc(F)cc3F)c(=O)n(C[C@H](C)O)c2n1
15,7.00 to 9.00,C[C@H](O)Cn1c(=O)c(Oc2ccc(F)cc2F)cc2cnc(NC(CCO)CCO)nc21
16,7.00 to 9.00,COC[C@H](C)Nc1ncc2cc(Oc3ccc(F)cc3F)c(=O)n(C[C@H](C)O)c2n1
17,7.00 to 9.00,C[C@H](O)Cn1c(=O)c(Oc2ccc(F)cc2F)cc2cnc(NC3CCN(S(C)(=O)=O)CC3)nc21
18,7.00 to 9.00,CC(C)Nc1ncc2cc(Oc3ccc(F)cc3F)c(=O)n(C[C@@H](C)O)c2n1
19,7.00 to 9.00,CC[C@@H](CO)Nc1ncc2cc(Oc3ccc(F)cc3F)c(=O)n(C[C@H](C)O)c2n1
20,7.00 to 9.00,C[C@@H](O)Cn1c(=O)c(Oc2ccc(F)cc2F)cc2cnc(NC3CCC3)nc21
21,7.00 to 9.00,C[C@@H](O)Cn1c(=O)c(Oc2ccc(F)cc2F)cc2cnc(NC3CCOCC3)nc21
22,7.00 to 9.00,C[C@@H](O)Cn1c(=O)c(Oc2ccc(F)cc2F)cc2cnc(NC(C)(C)CO)nc21
23,7.00 to 9.00,C[C@H](O)Cn1c(=O)c(Oc2ccc(F)cc2F)cc2cnc(NC3CCCCC3)nc21
